{"source": "patent US5006515A", "about": "“Pharmaceuticals, phosphorus-containing 2-isoxazolines and isoxazoles contained therein” (Hoechst Aktiengesellschaft, priority 1987, dated 1991)", "key": {"[1]": {"test_system": "Staphylococcus aureus", "assay": "Staphylococcus aureus infection of immunosuppressed mice", "type": "in vivo, female B6D2F1 mice", "details": "up to day 45", "source_text": "It is known that distinct immunosuppression can be induced in experimental animals by multiple administration of a cytostatic and is expressed by an increased susceptibility to infection with a drastic rise in mortality. […] Another group of infected animals which had not, however, been immunosuppressed by pretreatment with ADM was included as negative control. The immunosuppressed animals in the three active product groups received, on 4 consecutive days starting one day before the infection, the test substance, with intraperitoneal doses each of 0.1, 1 or 10 mg/kg being administered. Each experimental group comprised 20 animals."}, "[2]": {"molecular_target": "aminopeptidase B (Homo sapiens, UniProt Q9H4A4)", "sequence (Q9H4A4 whole entry, species assumed)": "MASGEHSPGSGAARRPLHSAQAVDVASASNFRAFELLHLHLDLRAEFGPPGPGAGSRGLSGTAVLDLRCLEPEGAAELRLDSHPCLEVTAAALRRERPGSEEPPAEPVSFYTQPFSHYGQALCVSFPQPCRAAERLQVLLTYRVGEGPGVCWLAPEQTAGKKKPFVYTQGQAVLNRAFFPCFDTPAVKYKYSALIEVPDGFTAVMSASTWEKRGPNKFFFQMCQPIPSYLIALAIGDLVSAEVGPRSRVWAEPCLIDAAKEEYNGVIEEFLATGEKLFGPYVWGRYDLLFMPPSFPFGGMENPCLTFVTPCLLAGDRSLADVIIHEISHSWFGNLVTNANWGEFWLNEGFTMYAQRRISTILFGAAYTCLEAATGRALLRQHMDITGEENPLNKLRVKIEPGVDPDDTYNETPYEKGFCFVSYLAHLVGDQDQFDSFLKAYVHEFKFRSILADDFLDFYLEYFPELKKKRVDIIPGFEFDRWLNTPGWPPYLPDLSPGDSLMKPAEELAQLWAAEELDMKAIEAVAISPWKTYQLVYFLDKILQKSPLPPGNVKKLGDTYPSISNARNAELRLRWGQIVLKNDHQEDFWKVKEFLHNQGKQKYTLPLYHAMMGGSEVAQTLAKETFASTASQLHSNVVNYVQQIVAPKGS", "assay": "Inhibition of aminopeptidase B", "type": "biochemical", "details": "substrate L-lysine 2-naphthylamide, room temperature; read-out: Aminopeptidase B IC50 (converted)", "description": "(§1) The activity of the enzyme aminopeptidase B was determined photometrically using the substrate L-lysine 2-naphthylamide at room temperature. […] In the same way, the inhibition of leucine aminopeptidase was investigated using L-leucine 4-nitroanilide as enzyme substrate. The IC50 values are compiled in Table 6."}, "[3]": {"test_system": "Listeria monocytogenes", "assay": "Mortality and organ colonization in mice infected with Listeria monocytogenes", "type": "in vivo, female NMRI mice", "details": "4 × 10 mg/kg i.p.", "source_text": "Female NMRI mice (10 animals/group) were infected with a low dose of Listeria monocytogenes (2×10^2)."}, "[4]": {"test_system": "Salmonella typhimurium", "assay": "Chronic Salmonella typhimurium infection in the mouse", "type": "in vivo, female NMRI mice", "details": "10 × 5 mg/kg i.p.; day 22", "description": "Female NMRI mice (20 animals/group) were infected by intravenous administration of 5×10^3 Salmonella typhimurium organisms. The animals subsequently developed a chronic infection which was characterized by persistent bacterial colonization of the organs, such as the liver and the spleen, with necrosis. The test substance was administered intraperitoneally in a dose of 5 mg/kg at intervals of two days from day 3 to day 21 after infection. The animals in a control group received only the vehicle. On day 22 after the infection, the mortality in both experimental groups was determined, and the organs of the animals which survived were examined for organisms and necrosis."}, "[5]": {"test_system": "antibodies against tetanus toxoid", "assay": "Antibody response of the mouse to tetanus toxoid (ELISA)", "type": "in vivo, female NMRI mice", "details": "20-day value", "description": "Groups each containing 5 female NMRI mice with a body weight of 18 to 20 g were formed, and each of the animals received either intravenous administration of 10^8 heat-killed E coli bacteria or 300 Lf (limes of flocculation) of tetanus toxoid. Oral administration of the test substance in physiological saline (PBS) in doses of 5, 10, 20, 40 or 80 mg/kg, or of the pure vehicle (control groups), was carried out at the same time as administration of the antigen. After 10 and 20 days, blood was taken from the retroorbital venous plexus of the mice and, in the sera obtained therefrom, the IgG and IgM antibodies against E. coli organisms and tetanus toxoid were determined with the aid of the ELISA technique known to those skilled in the art, using homologous lipopolysaccharide from E. coli and tetanus toxoid, respectively, as antigen. The magnitude of the extinctions measured in the photometer is a measure of the amount of antibodies formed."}, "[6]": {"test_system": "active Arthus reaction", "assay": "Active Arthus reaction in the rat", "type": "in vivo, Sprague-Dawley rats", "details": "Rattus norvegicus, po, 4 h, oral dose 35 mg/kg, 4 h after ovalbumin challenge; read-out: Active Arthus reaction % change", "description": "The experimental animals used were female and male Sprague-Dawley rats with a body weight between 80 and 100 g which received subcutaneous injections into the tail-head of 0.5 ml of an emulsion of pertussis vaccine and ovalbumin in liquid paraffin. After two weeks, the rats were divided into groups each of 8 animals. 24 hours and 1 hour before induction of the Arthus reaction by injection of 0.1 ml of a 0.4% strength ovalbumin solution into the right hind paw, the particular test substance or the pure vehicle (positive control) was administered orally, sodium chloride solution was injected into the left paw. One group of unsensitized animals (negative control group) was likewise treated with ovalbumin in order to be able to rule out nonspecific reactions to the protein. The parameter used for measuring the action of the product was the percentage change in the increase in paw volume compared with that in the control group which was sensitized but untreated (positive control) 4 hours after ovalbumin challenge, when the swelling had reached its maximum."}, "[7]": {"molecular_target": "leucine aminopeptidase", "assay": "Inhibition of leucine aminopeptidase", "type": "biochemical", "details": "substrate L-leucine 4-nitroanilide", "description": "as §1"}, "[8]": {"test_system": "B16 melanoma", "assay": "Stimulation of defenses against B16 melanoma in the mouse", "type": "in vivo, female C57B1/6 mice", "details": "intervals of 2 days, day 4 to day 100", "source_text": "A primary tumor was generated with 2×10^5 live B16 melanoma cells in female C57B1/6 mice with a body weight of 18 to 20 g and, after having grown to a diameter of 0.65 cm, was removed surgically. The animals subsequently died of metastases in the lung. The investigation now was of whether the mean survival time after removal of the primary tumor, that is to say the time at which 50% of the animals are still alive, can prolonged by intraperitoneal treatment with the compounds of the formula I. For this purpose, after amputation of the primary tumor, the mice were divided into groups each containing 10 animals and were treated with i.p. doses each of 1.25 or 2.5 mg/kg test substance at intervals of 2 days from day 4 to day 100. The animals in the control group received merely the pure vehicle PBS (physiological saline) in the same therapeutic regimen."}}}
{"smiles": "O=P(O)(O)C1CC(c2ccccc2)=NO1", "note": "(racemic) [Example 34, 3-Phenyl-2-isoxazolin-5-ylphosphonic acid]", "values": [{"measurement": "Mortality", "setting": "[1]; 0.1 mg/kg 4 × i.p.", "value": "5/20"}, {"measurement": "Mortality", "setting": "[1]; 1.0 mg/kg 4 × i.p.", "value": "8/20"}, {"measurement": "Mortality", "setting": "[1]; 10.0 mg/kg 4 × i.p.", "value": "8/20"}, {"measurement": "IC50", "setting": "[2]", "value": 99.1, "unit": "µM"}, {"measurement": "survival of the second infection", "setting": "[3]", "value": "survived the second infection"}, {"measurement": "% of surviving animals with organisms in the liver", "setting": "[3]; 5 days after second infection", "value": 20, "unit": "%"}, {"measurement": "Mortality after secondary infection", "setting": "[3]; second infection 10^6 organisms", "value": "0/10"}, {"measurement": "% of surviving animals with liver necroses", "setting": "[4]", "value": 58, "unit": "%"}, {"measurement": "% of surviving animals with organism-positive livers", "setting": "[4]", "value": 67, "unit": "%"}, {"measurement": "% of surviving animals with severe liver necroses", "setting": "[4]", "value": 42, "unit": "%"}, {"measurement": "% of surviving animals with spleen necroses", "setting": "[4]", "value": 0, "unit": "%"}, {"measurement": "Mortality", "setting": "[4]", "value": "8/20"}, {"measurement": "Antibody response to tetanus toxoid, IgG", "setting": "[5]; 5 mg/kg 1 × p.o.", "value": "865 ± 182", "unit": "mE492nm"}, {"measurement": "Antibody response to tetanus toxoid, IgG", "setting": "[5]; 10 mg/kg 1 × p.o.", "value": "1213 ± 255", "unit": "mE492nm"}, {"measurement": "Antibody response to tetanus toxoid, IgG", "setting": "[5]; 20 mg/kg 1 × p.o.", "value": "1852 ± 261", "unit": "mE492nm"}, {"measurement": "Antibody response to tetanus toxoid, IgG", "setting": "[5]; 40 mg/kg 1 × p.o.", "value": "1357 ± 348", "unit": "mE492nm"}, {"measurement": "Antibody response to tetanus toxoid, IgG", "setting": "[5]; 80 mg/kg 1 × p.o.", "value": "1154 ± 232", "unit": "mE492nm"}, {"measurement": "change in vivo at 35 mg/kg", "setting": "[6]", "value": -16, "unit": "%"}, {"measurement": "Leucine aminopeptidase IC50", "setting": "[7]", "value": 24, "unit": "μug/ml"}, {"measurement": "% survival after 100 days", "setting": "[8]; 1.25 mg/kg i.p.", "value": 20, "unit": "%"}, {"measurement": "Mean survival time", "setting": "[8]; 1.25 mg/kg i.p.", "value": 41, "unit": "days"}, {"measurement": "% survival after 100 days", "setting": "[8]; 2.50 mg/kg i.p.", "value": 30, "unit": "%"}, {"measurement": "Mean survival time", "setting": "[8]; 2.50 mg/kg i.p.", "value": 43, "unit": "days"}]}
